The nature of the assay: Inhibitor concentration required to block 50% of the specific [3H]PAF binding, obtained as natural product.

The IC50 is the point on the concentration scale where inhibition reaches its midpoint. On to `C=CCC1=CC2(OCC)C(=CC1=O)O[C@H](c1ccc(OC)c(OC)c1)[C@H]2C` (some centres not stated), for which the IC50 came to 500 nM.
As for `CCCC1=C[C@@]2(OC)C(=CC1=O)O[C@H](c1ccc(OC)c(OC)c1)[C@H]2C`, the figure is 70 nM.

Source of the values: BindingDB's records for doi:10.1021/jm00384a023 (1987).
